PMC8466300, “Investigating the Central Nervous System Disposition of Actinomycin D: Implementation and Evaluation of Cerebral Microdialysis and Brain Tissue Measurements Supported by UPLC-MS/MS Quantification” (Pharmaceutics, 2021)
Read-outs that look alike come from different tables or passages of the source. *1 amine or outer side, *2 acyl side, *3 side chain or, on linkers, in order; H or OH if unused. Where a SMILES comes first, the peptide text is derived from it. Bridges are numbered along the chain shown (N, C = ends). Roman numbers before positions name the chains, in order. [ ]: non-standard residue; d: D form. Actinocin(9to1) = Cc1c2oc3c(C)ccc(C(=O)[*:1])c3nc-2c(C(=O)[*:2])c(N)c1=O; NMeV = CN[C@H](C(=O)O)C(C)C; Sar = CNCC(=O)O

How the values were obtained:
[1] = female NSG mice, 0.5 mg/kg i.v. bolus, estimates; for Cmax: plasma at 0.75, 6, 22 h, UPLC-MS/MS; for t1/2 (half-life): plasma up to 22 h; for AUC (extrapolated to infinity): plasma
Protocol: (§1) The experiments were carried out in accordance with the European regulations for care and use of laboratory animals (2010/63/EU) under the German license number G-187/18 and the internal reference number DKFZ374, approved by the responsible regional council (Regierungspräsidium Karlsruhe, Germany). Female 8-week-old NSG mice (NOD.Cg-Prkdc^scid Il2rg^tm1Wjl/SzJ-NOD-SCID gamma-mice) with a weight of approximately 25 g were used for the studies. […] Mice received analgesia (metamizole) and anesthesia with isoflurane during surgery. […] Therefore, we chose to take blood samples 0.75, 6, and 22 h after intravenous bolus injection into the tail vein for the assay’s feasibility pharmacokinetic experiment. […] Full blood samples were transferred into citrate tubes (Sarstedt, Germany) and centrifuged at 1600× g for 10 min to generate plasma samples, which were stored at −80 °C until analysis. […] For validation of the UPLC-MS/MS quantification, blank plasma from 6 naïve mice was used and blank brain tissue was obtained from 2 unexposed mice.
(§2) For protein precipitation of plasma microsamples, an excess of ACN (50 µL) with 0.1% FA containing the IS was applied to an Impact® 96-well protein precipitation plate (Phenomenex, Torrance, CA, USA). Subsequently, 20 µL of the plasma samples were added and the plates sealed and shaken for 1 min. […] For protein depletion, samples were filtered into a 96-well collection plate (Waters, Milford, MA, USA) by applying positive pressure with a 96-well positive pressure unit (Waters, Milford, MA, USA) operated with air overpressure of 5 psi. After addition of 40 µL of water containing 0.1% FA, the collection plates were sealed, shaken, and extracts injected onto the UPLC system.

[2] = Stability in microdialysis buffer and in solution (assay validation); type: physicochemical; conditions: for 6-month stability in solution at 4°C, accuracy: ACN/H2O (1/1) + 0.1% FA solutions, 6 months; for 6-month stability in solution at 4°C, accuracy / 2 days buffer stability at RT, accuracy: N = 3; for 2 days buffer stability at RT, accuracy: microdialysate buffer (1% BSA Ringer)
Protocol: Plasma calibration samples were prepared by spiking blank plasma (75 µL) with 25 µL of the calibration sub-solution, yielding plasma concentrations of 0.05, 0.2, 0.5, 1, 3, 10, 30, and 100 ng/mL. Plasma QC samples were prepared accordingly at concentrations of 0.05, 0.15, 3, and 60 ng/mL. Brain tissue homogenate calibration samples were prepared by spiking brain tissue homogenate (75 µL), which was prepared at 100 mg tissue per mL of 5% aqueous ACN containing 0.5% Triton X, with 25 µL of the calibration sub-solution, yielding concentrations corresponding to 0.5, 2, 5, 10, 30, 100, 300, and 1000 ng/g. Brain tissue homogenate QC samples were prepared accordingly, at corresponding concentrations of 0.5, 1.5, 30, and 600 ng/g. Solutions were kept at 4 °C for up to 6 months.

[3] = rapid equilibrium dialysis, 12 h, 37 °C
Protocol: To determine the previously unknown unbound fraction of actinomycin D in plasma and brain tissue homogenate, we performed rapid equilibrium dialysis (RED) in duplicate. For this, samples were spiked with drug solutions that were prepared in plasma or brain tissue homogenate to obtain minimally diluted samples (30 ng/mL for plasma and 30 ng/g for brain tissue). The free actinomycin D tissue fraction was also quantified in a pooled sample of brain tissue homogenates from the three mice euthanized 2 h after dosing. Determinations were performed on a RED apparatus (ThermoFisher Scientific, Waltham, MA, USA) according to the manufacturer´s instructions under gentle agitation for 12 h at 37 °C.

[4] = two patients, three hours after intravenous administration; cited from earlier work
Text: However, in this earlier study, actinomycin D was quantified in cerebrospinal fluid three hours after intravenous administration, i.e., in a protein-poor compartment that is also separated from blood and tissue by active barriers. […] In a more recent study in m ...

[5] = N = 3, UPLC-MS/MS; for Freeze-and-thaw stability, accuracy: plasma, three freeze-and-thaw cycles separated by at least 24 h
Protocol: Accuracy was calculated as the percentage of the ratio of the mean determined concentration in individual analytical runs and the nominal value. Precision was expressed in percent and is defined as the coefficient of variation of the measured sample concentrations at each QC level. Three validation runs were analyzed, each containing eight calibration samples in duplicate determination and four QC samples at LLOQ, and low, mid, and high QC concentration in six replicates. Selectivity was evaluated using blank plasma samples from six naïve mice and brain tissue homogenates from two mice. Extraction recovery was calculated from peak areas after extraction from the QC samples divided by the respective peak areas obtained from blank plasma spiked after extraction. Matrix effects were evaluated by comparison of the peak areas of the blank plasma samples spiked after extraction with the respective peak areas of matrix-free UPLC solvent samples spiked with the identical amount. Stability of the analyte was tested in three freeze-and-thaw cycles separated by at least 24 h, in plasma samples stored for 1 month at −25 °C, in microdialysate stored at room temperature for 2 d, and in extracts left in the autosampler for 24 h. Additionally, an incurred sample reanalysis was performed for all plasma samples with sufficient volume for reanalysis.

P-gp = conditions: cited from earlier work
in vivo = conditions: female, mouse, plasma, iv, 0.5 mg/kg; for level at 6 h / level at 22 h: NSG (NOD.Cg-Prkdc^scid Il2rg^tm1Wjl/SzJ), plasma actinomycin D concentration, incurred sample reanalysis table
Protocol: as §1, §2

SMILES: Cc1c2oc3c(C)ccc(C(=O)N[C@@H]4C(=O)N[C@H](C(C)C)C(=O)N5CCC[C@H]5C(=O)N(C)CC(=O)N(C)[C@@H](C(C)C)C(=O)O[C@@H]4C)c3nc-2c(C(=O)N[C@@H]2C(=O)N[C@H](C(C)C)C(=O)N3CCC[C@H]3C(=O)N(C)CC(=O)N(C)[C@@H](C(C)C)C(=O)O[C@@H]2C)c(N)c1=O [actinomycin D, Actinomycin D] (I: T[dV]P[Sar][NMeV] / II: T[dV]P[Sar][NMeV]; ester I:1-I:C, II:1-II:C; linker I:N-II:N via Actinocin(9to1))
- Cmax ([1]; mouse 1): 22.6 ng/mL
- Cmax ([1]; mouse 2): 14.6 ng/mL
- Cmax ([1]; mouse 3): 10.3 ng/mL
- t1/2 (half-life) ([1]; mouse 1): 5.07 h
- t1/2 (half-life) ([1]; mouse 2): 6.14 h
- t1/2 (half-life) ([1]; mouse 3): 6.90 h
- AUC (extrapolated to infinity) ([1]; mouse 1): 171 ng·h/mL
- AUC (extrapolated to infinity) ([1]; mouse 2): 111 ng·h/mL
- AUC (extrapolated to infinity) ([1]; mouse 3): 101 ng·h/mL
- Cl (clearance) ([1]; mouse 1): 1.22 mL/min
- Vss (volume of distribution) ([1]; mouse 1): 0.53 L
- Cl (clearance) ([1]; mouse 2): 1.87 mL/min
- Vss (volume of distribution) ([1]; mouse 2): 0.98 L
- Cl (clearance) ([1]; mouse 3): 2.06 mL/min
- Vss (volume of distribution) ([1]; mouse 3): 1.23 L
- stability in the microdialysis buffer ([2]; 1% BSA in Ringer solution, 2 d, room temperature): stable
- 6-month stability in solution at 4°C, accuracy ([2]; High QC 60.0 ng/mL): 87.2%
- 6-month stability in solution at 4°C, accuracy ([2]; Low QC 0.150 ng/mL): 88.3%
- 6-month stability in solution at 4°C, accuracy ([2]; Medium QC 3.00 ng/mL): 86.4%
- 2 days buffer stability at RT, accuracy ([2]; room temperature, High QC 60.0 ng/mL): 104.7%
- 2 days buffer stability at RT, accuracy ([2]; room temperature, Low QC 0.150 ng/mL): 108.7%
- 2 days buffer stability at RT, accuracy ([2]; room temperature, Medium QC 3.00 ng/mL): 113.5%
- time stable in solution ([2]; stored solutions kept at 4 °C): at least 6 months
- free fraction in spiked brain tissue homogenate ([3]; minimally diluted homogenate spiked at 30 ng/g, duplicate, UPLC-MS/MS): 3.4%
- free fraction in brain tissue homogenate of dosed mice ([3]; pooled homogenates of three mice 2 h after 0.5 mg/kg i.v., estimated from response values below LLOQ): < 3%
- cerebrospinal fluid concentration relative to corresponding plasma concentration [4]: approximately 10%
- 1-month plasma stability at -25 °C, accuracy ([5]; High QC 60.0 ng/mL): 100.7%
- 1-month plasma stability at -25 °C, accuracy ([5]; Low QC 0.150 ng/mL): 95.6%
- 1-month plasma stability at -25 °C, accuracy ([5]; Medium QC 3.00 ng/mL): 98.3%
- Freeze-and-thaw stability, accuracy ([5]; High QC 60.0 ng/mL): 87.6%
- Freeze-and-thaw stability, accuracy ([5]; Low QC 0.150 ng/mL): 93.6%
- Freeze-and-thaw stability, accuracy ([5]; Medium QC 3.00 ng/mL): 92.0%
- brain exposure in P-gp knockout mice relative to wildtype mice (P-gp): 2.3 fold
- level at 6 h (in vivo; incurred reanalysis, mouse # 6, sampling 6 h): 1.17 ng/mL
- level at 22 h (in vivo; incurred reanalysis, mouse # 6, sampling 22 h): 1.16 ng/mL
- level at 6 h (in vivo; incurred reanalysis, mouse # 7, sampling 6 h): 5.23 ng/mL
- level at 22 h (in vivo; incurred reanalysis, mouse # 7, sampling 22 h): 5.17 ng/mL
- level at 6 h (in vivo; original analysis, mouse # 6, sampling 6 h): 1.31 ng/mL
- level at 22 h (in vivo; original analysis, mouse # 6, sampling 22 h): 1.36 ng/mL
- level at 6 h (in vivo; original analysis, mouse # 7, sampling 6 h): 5.51 ng/mL
- level at 22 h (in vivo; original analysis, mouse # 7, sampling 22 h): 4.48 ng/mL
- AUC(0-inf) (in vivo; NSG): 128 ± 31 ng·h/mL
- Cmax (in vivo; NSG): 15.8 ± 5.1 ng/mL
- Vd (in vivo; NSG): 1.1 ± 0.35 L
- half-life (in vivo; NSG): 6.04 ± 0.75 h
